Reference: the NIST ThermoML archive (doi:10.1007/s10765-011-0997-8)
Numbers after ± are expanded uncertainties.

Conditions: 101.33 kPa, Liquid; for speed of sound: Linear variable-path acoustic interferometer; for mass density: Pycnometric method

mass density (308.15 K) [kg/m3]	SMILES	speed of sound (298.15 K) [m/s]	mass density (298.15 K) [kg/m3]
–	Cc1ccccc1C [1,2-dimethylbenzene]	1346 ± 2	875.9 ± 0.28
–	Cc1ccc(C)cc1 [1,4-dimethylbenzene]	1310 ± 2	856.65 ± 0.28
–	c1ccccc1 [benzene]	1298 ± 3	873.64 ± 0.46
868.81 ± 0.49	C1CCOCC1 [tetrahydropyran]	1272 ± 3	–
–	Cc1ccccc1 [toluene]	1303 ± 2	862.22 ± 0.31
